Assay results as given in article PMC10515640, “Structure-Based Optimization of Covalent, Small-Molecule Stabilizers of the 14-3-3σ/ERα Protein–Protein Interaction from Nonselective Fragments” (Journal of the American Chemical Society, 2023).

How the values were obtained:
14-3-3σ/ERα [1] = target: T1, 14-3-3σ/ERα (Homo sapiens, UniProt P03372+P31947); assay: Fluorescence anisotropy compound titration, FAM-labeled ERα peptide; assay type: binding; conditions: 10 nM ERα-FAM labeled peptide, 1 µM 14-3-3σ, overnight incubation (24 h); read-out: EC50 value ERα (FA compound titration)
T1 construct: The 14-3-3 σ isoform (full-length for mass spectrometry and fluorescence anisotropy assays, ΔC for crystallography); made in house; host or cells: E. coli Rosetta 2(DE3)pLysS, pPROEX HTb vector
Source text: (§1) Two orthogonal assays were developed for screening. For the primary assay, mass spectrometry (MS) was used to monitor the formation of the covalent bond between the compound and the native cysteine (Cys38 on 14-3-3σ) (Figure 1D). The assay was first performed in the absence of peptide to determine binding to 14-3-3σ only (apo screening, D1) and then in the presence of both 14-3-3σ and the peptide as an indication of how much the peptide stabilized compound binding (D2). […] As a secondary assay, fluorescence anisotropy (FA) was used. In this case, compounds were titrated to mixtures of 14-3-3σ and FAM-labeled peptides. […] Thus, the two assays are highly complementary; the MS assay reports on compound binding and the FA assay reports on peptide binding. […]
diluted in buffer (10 mM HEPES, pH 7.5, 150 mM NaCl, 0.1% Tween20, 1 mg/mL Bovine Serum Albumin (BSA; Sigma-Aldrich). Final DMSO in the assay was always 1%. Dilution series of 14-3-3 proteins or compounds were made in […]
Compound titrations were made by titrating the compound in a 2-fold dilution series (starting at 500 or 1000 µM) to a mix of fluorescein-labeled peptide (10 nM) and 14-3-3σ (concentration at approximately the EC20 to EC30 value of the protein-peptide complex; 1 µM for ERα and 5 µM for C-RAF). Using the ~EC25 value makes the assay sensitive for measuring an increase in PPI formation. Fluorescence anisotropy measurements were performed directly and after overnight incubation at room temperature. […]
Wells containing only FAM-peptide were used to set as G-factor at 35 mP. Data reported are at endpoint. EC50 and apparent Kd values were obtained from fitting the data with a four-parameter logistic model (4PL) in GraphPad Prism 7 for Windows. Data was obtained and averaged based on either three (compound titrations) or two (protein titrations) independent experiments.

14-3-3σ = target: T2, 14-3-3σ (Homo sapiens, UniProt P31947); assay: Mass spectrometry dose response, compound binding to 14-3-3σ in the absence of peptide (apo); conditions: 100 nM compound, 100 nM 14-3-3σ
T2 construct: The 14-3-3 σ isoform (full-length for mass spectrometry and fluorescence anisotropy assays, ΔC for crystallography); made in house; host or cells: E. coli Rosetta 2(DE3)pLysS, pPROEX HTb vector
T2 sequence (P31947 1-248): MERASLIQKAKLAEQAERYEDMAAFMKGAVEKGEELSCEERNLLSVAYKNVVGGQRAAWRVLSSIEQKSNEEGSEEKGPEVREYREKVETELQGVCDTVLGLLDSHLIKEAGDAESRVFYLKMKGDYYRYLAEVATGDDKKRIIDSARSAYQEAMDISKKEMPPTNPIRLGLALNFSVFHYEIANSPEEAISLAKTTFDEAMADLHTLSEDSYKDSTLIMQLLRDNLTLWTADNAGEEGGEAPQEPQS
Source text: as §1
(§2) Mass spectrometry dose response assays were performed on a Waters Acquity UPLC/ Xevo G2-XS Q-Tof mass spectrometer. A Waters UPLC Protein BEH-C4 Column (300 Å, 1.7 μm, 2.1 mm x 50 mm) was used to desalt the samples prior to application on the mass spectrometer. For 19-point MS dose responses, 50 mM compound stocks in DMSO were serially diluted in 3-fold increment in a master plate, then 1000 nl of the compounds were transferred in the assay plates. Master mixes containing 100 nM full-length wild type 14-3-3σ in the absence or presence of […]
(§3) Assay buffer was TRIS (10 mM, pH 8.0) and final volume per well was 50 μl, with final top concentration of compounds dose response series at 1 mM. The reaction mixtures were incubated for 1h at rt before subjected to MS. Four measurements (1h, 8h, 16h, 24h) were performed for time-course experiments. The injection volume for each sample was 6 μl. 24 μl of sample were needed for the time-course experiments, so the total volume in the assay plate was adjusted to 50 μl, to account for the dead volume in the injections. Data collection and automated processing followed a custom workflow, as previously described.1 z Plots were created using GraphPad Prism with the log(agonist) vs. response (variable slope, four parameters) fitting model. […]

14-3-3σ/C-RAF = target: T3, 14-3-3σ/C-RAF (Homo sapiens, UniProt P31947); assay: Mass spectrometry dose response, compound binding to 14-3-3σ in the presence of C-RAF phosphopeptide; conditions: 100 nM compound, 100 nM 14-3-3σ, C-RAF peptide 18 µM
T3 construct: The 14-3-3 σ isoform (full-length for mass spectrometry and fluorescence anisotropy assays, ΔC for crystallography); made in house; host or cells: E. coli Rosetta 2(DE3)pLysS, pPROEX HTb vector
T3 sequence (P31947 1-248): T2 sequence (P31947 1-248)
Source text: as §1, §2, §3

14-3-3σ/ERα [2] = target: T1, 14-3-3σ/ERα; assay: Mass spectrometry dose response, compound binding to 14-3-3σ in the presence of ERα phosphopeptide; conditions: 100 nM compound, 100 nM 14-3-3σ, ERα-peptide 2 µM
Source text: as §1, §2, §3

| Compound | EC50 (14-3-3σ/ERα [1]) | Percentage (%) bound of compound to 14-3-3σ, APO 1h (14-3-3σ) | Percentage (%) bound of compound to 14-3-3σ, APO 8h (14-3-3σ) | Percentage (%) bound of compound to 14-3-3σ, APO 16h (14-3-3σ) | Percentage (%) bound of compound to 14-3-3σ, APO 24h (14-3-3σ) | Percentage (%) bound of compound to 14-3-3σ, CRAF 1h (14-3-3σ/C-RAF) | Percentage (%) bound of compound to 14-3-3σ, CRAF 8h (14-3-3σ/C-RAF) | Percentage (%) bound of compound to 14-3-3σ, CRAF 24h (14-3-3σ/C-RAF; 24h) | Percentage (%) bound of compound to 14-3-3σ, CRAF 24h (14-3-3σ/C-RAF; head prints 24h) | Percentage (%) bound of compound to 14-3-3σ, ERα 1h (14-3-3σ/ERα [2]) | Percentage (%) bound of compound to 14-3-3σ, ERα 8h (14-3-3σ/ERα [2]) | Percentage (%) bound of compound to 14-3-3σ, ERα 16h (14-3-3σ/ERα [2]) | Percentage (%) bound of compound to 14-3-3σ, ERα 24h (14-3-3σ/ERα [2]) |
| --- | --- | --- | --- | --- | --- | --- | --- | --- | --- | --- | --- | --- | --- |
| C=CS(=O)(=O)NCC1CCN(C(=O)C(C)(C)Oc2ccc(Cl)cc2)CC1 [compound 17] | 33 ± 1 µM | 0% | 0% | 1.0% | 1.0% | 4.7% | 8.0% | 32.4% | 11.6% | 0.8% | 4.7% | 11.0% | 18.8% |
| CC(C)(Oc1ccc(Cl)cc1)C(=O)N1CCC(CCC(=O)CCl)CC1 [compound 37] | 44 ± 2 µM | 12.0% | 40.8% | 72.0% | 90.3% | 98.8% | 99.9% | 100% | 99.9% | 56.4% | 97.6% | 100% | 100% |
| O=C(CCl)NCC1CCN(C(=O)C2(Nc3ccccc3)CCC2)CC1 [compound 98] | > 150 µM | 0% | 1.5% | 4.0% | 4.0% | 0% | 0% | 0% | 0% | 0% | 0% | 0% | 0% |
